Calls of active or inactive are those of the source. No cut-off for these calls is given here.
Key:
HT-29 [1] = assay: Induction of apoptosis in human HT-29 cells assessed as viable cells at 1 uM measured after 48 hrs in presence of AZD1390 by Annexin V-FITC/Propidium iodide staining based flow cytometry analysis (reference value: 95.33%); type: functional; conditions: read-out: Activity
HT-29 [2] = assay: Induction of apoptosis in human HT-29 cells assessed as early apoptotic cells at 1 uM measured after 48 hrs in presence of AZD1390 by Annexin V-FITC/Propidium iodide staining based flow cytometry analysis (reference value: 3.81%); type: functional
OVCAR-3 = assay: Antiproliferative activity against ATM-deficient human OVCAR-3 cells assessed as reduction in cell viability incubated for 72 hrs by MTT assay; type: functional, cell-based; conditions: dose 0.001-100 µM, DDE = dose-dependent effect
LoVo [3] = assay: Antiproliferative activity against ATM-deficient human LoVo cells assessed as reduction in cell viability incubated for 72 hrs by MTT assay; type: functional, cell-based; conditions: dose 0.001-100 µM, DDE = dose-dependent effect
NCI-H23 = assay: Antiproliferative activity against ATM-deficient human NCI-H23 cells assessed as reduction in cell viability incubated for 72 hrs by MTT assay; type: functional, cell-based; conditions: dose 0.001-100 µM, DDE = dose-dependent effect
HepG2 = assay: Antiproliferative activity against ATM proficient human HepG2 cells assessed as reduction in cell viability incubated for 72 hrs by MTT assay; type: functional, cell-based; conditions: dose 0.001-100 µM, DDE = dose-dependent effect
HT-29 [4] = assay: Antiproliferative activity against human HT-29 cells assessed as reduction in cell viability incubated for 72 hrs in presence of AZD1390 by MTT assay; type: functional, cell-based; conditions: HT-29, 72 h
LoVo [5] = assay: Induction of apoptosis in human LoVo cells deficient in ATM assessed as late apoptotic cells at 0.3 uM measured after 24 hrs by Annexin V-FITC/Propidium iodide staining based flow cytometry analysis (reference value: 3.32%); type: functional
LoVo [6] = assay: Induction of apoptosis in human LoVo cells deficient in ATM assessed as early apoptotic cells at 1 uM measured after 24 hrs by Annexin V-FITC/Propidium iodide staining based flow cytometry analysis (reference value: 4.20%); type: functional
LoVo [7] = assay: Induction of apoptosis in human LoVo cells deficient in ATM assessed as late apoptotic cells at 1 uM measured after 24 hrs by Annexin V-FITC/Propidium iodide staining based flow cytometry analysis (reference value: 3.32%); type: functional
HT-29 [8] = assay: Induction of apoptosis in human HT-29 cells assessed as necrotic cells at 0.3 uM measured after 48 hrs by Annexin V-FITC/Propidium iodide staining based flow cytometry analysis (reference value: 0.73%); type: functional
HT-29 [9] = assay: Induction of apoptosis in human HT-29 cells assessed as late apoptotic cells at 1 uM measured after 48 hrs by Annexin V-FITC/Propidium iodide staining based flow cytometry analysis (reference value: 0.71%); type: functional
HT-29 [10] = assay: Induction of apoptosis in human HT-29 cells assessed as viable cells at 3 uM measured after 48 hrs by Annexin V-FITC/Propidium iodide staining based flow cytometry analysis (reference value: 97.01%); type: functional; conditions: read-out: Activity
HT-29 [11] = assay: Induction of apoptosis in human HT-29 cells assessed as viable cells at 0.3 uM measured after 48 hrs in presence of AZD1390 by Annexin V-FITC/Propidium iodide staining based flow cytometry analysis (reference value: 95.33%); type: functional; conditions: read-out: Activity
HT-29 [12] = assay: Induction of apoptosis in human HT-29 cells assessed as late apoptotic cells at 0.3 uM measured after 48 hrs in presence of AZD1390 by Annexin V-FITC/Propidium iodide staining based flow cytometry analysis (reference value: 0.63%); type: functional
[13] = Cmax in Sprague-Dawley rat at 5 mg/kg, iv measured at 0.083 to 24 hrs by LC-MS/MS method; type: ADME, organism-based; set-up: dose 5 mg/kg, time 0.083-24 hrs, route iv; conditions: in vivo
[14] = AUC (0 to infinity) in Sprague-Dawley rat at 5 mg/kg, iv measured at 0.083 to 24 hrs by LC-MS/MS method; type: ADME, organism-based; set-up: dose 5 mg/kg, time upper 24 hrs, time lower 0.083 hrs, route iv; conditions: in vivo
[15] = Toxicity in NOD/SCID mouse xenografted with human LoVo cells assessed as damage in heart at 50 to 100 mg/kg, po administered bid for 30 days measured after 2 hrs post last dose by H and E staining method; type: organism-based; conditions: in vivo, 720 h, dose 50-100 mg/kg, time 30 day
[16] = Toxicity in NOD/SCID mouse xenografted with human LoVo cells assessed as damage in liver at 50 to 100 mg/kg, po administered bid for 30 days measured after 2 hrs post last dose by H and E staining method; type: organism-based; conditions: in vivo, 720 h, dose 50-100 mg/kg, time 30 day
[17] = biological target: Serine/threonine-protein kinase ATR (Homo sapiens, UniProt Q13535); assay: Inhibition of ATR signalling in ATM-deficient human LoVo cells assessed as change in expression of ATR at up to 3 uM incubated for 1 hr followed by hydroxyurea addition measured after 4 hrs by Western blot analysis; type: cell-based; conditions: time 5.0 hrs
Serine/threonine-protein kinase ATR, sequence (Q13535 whole entry, looked up): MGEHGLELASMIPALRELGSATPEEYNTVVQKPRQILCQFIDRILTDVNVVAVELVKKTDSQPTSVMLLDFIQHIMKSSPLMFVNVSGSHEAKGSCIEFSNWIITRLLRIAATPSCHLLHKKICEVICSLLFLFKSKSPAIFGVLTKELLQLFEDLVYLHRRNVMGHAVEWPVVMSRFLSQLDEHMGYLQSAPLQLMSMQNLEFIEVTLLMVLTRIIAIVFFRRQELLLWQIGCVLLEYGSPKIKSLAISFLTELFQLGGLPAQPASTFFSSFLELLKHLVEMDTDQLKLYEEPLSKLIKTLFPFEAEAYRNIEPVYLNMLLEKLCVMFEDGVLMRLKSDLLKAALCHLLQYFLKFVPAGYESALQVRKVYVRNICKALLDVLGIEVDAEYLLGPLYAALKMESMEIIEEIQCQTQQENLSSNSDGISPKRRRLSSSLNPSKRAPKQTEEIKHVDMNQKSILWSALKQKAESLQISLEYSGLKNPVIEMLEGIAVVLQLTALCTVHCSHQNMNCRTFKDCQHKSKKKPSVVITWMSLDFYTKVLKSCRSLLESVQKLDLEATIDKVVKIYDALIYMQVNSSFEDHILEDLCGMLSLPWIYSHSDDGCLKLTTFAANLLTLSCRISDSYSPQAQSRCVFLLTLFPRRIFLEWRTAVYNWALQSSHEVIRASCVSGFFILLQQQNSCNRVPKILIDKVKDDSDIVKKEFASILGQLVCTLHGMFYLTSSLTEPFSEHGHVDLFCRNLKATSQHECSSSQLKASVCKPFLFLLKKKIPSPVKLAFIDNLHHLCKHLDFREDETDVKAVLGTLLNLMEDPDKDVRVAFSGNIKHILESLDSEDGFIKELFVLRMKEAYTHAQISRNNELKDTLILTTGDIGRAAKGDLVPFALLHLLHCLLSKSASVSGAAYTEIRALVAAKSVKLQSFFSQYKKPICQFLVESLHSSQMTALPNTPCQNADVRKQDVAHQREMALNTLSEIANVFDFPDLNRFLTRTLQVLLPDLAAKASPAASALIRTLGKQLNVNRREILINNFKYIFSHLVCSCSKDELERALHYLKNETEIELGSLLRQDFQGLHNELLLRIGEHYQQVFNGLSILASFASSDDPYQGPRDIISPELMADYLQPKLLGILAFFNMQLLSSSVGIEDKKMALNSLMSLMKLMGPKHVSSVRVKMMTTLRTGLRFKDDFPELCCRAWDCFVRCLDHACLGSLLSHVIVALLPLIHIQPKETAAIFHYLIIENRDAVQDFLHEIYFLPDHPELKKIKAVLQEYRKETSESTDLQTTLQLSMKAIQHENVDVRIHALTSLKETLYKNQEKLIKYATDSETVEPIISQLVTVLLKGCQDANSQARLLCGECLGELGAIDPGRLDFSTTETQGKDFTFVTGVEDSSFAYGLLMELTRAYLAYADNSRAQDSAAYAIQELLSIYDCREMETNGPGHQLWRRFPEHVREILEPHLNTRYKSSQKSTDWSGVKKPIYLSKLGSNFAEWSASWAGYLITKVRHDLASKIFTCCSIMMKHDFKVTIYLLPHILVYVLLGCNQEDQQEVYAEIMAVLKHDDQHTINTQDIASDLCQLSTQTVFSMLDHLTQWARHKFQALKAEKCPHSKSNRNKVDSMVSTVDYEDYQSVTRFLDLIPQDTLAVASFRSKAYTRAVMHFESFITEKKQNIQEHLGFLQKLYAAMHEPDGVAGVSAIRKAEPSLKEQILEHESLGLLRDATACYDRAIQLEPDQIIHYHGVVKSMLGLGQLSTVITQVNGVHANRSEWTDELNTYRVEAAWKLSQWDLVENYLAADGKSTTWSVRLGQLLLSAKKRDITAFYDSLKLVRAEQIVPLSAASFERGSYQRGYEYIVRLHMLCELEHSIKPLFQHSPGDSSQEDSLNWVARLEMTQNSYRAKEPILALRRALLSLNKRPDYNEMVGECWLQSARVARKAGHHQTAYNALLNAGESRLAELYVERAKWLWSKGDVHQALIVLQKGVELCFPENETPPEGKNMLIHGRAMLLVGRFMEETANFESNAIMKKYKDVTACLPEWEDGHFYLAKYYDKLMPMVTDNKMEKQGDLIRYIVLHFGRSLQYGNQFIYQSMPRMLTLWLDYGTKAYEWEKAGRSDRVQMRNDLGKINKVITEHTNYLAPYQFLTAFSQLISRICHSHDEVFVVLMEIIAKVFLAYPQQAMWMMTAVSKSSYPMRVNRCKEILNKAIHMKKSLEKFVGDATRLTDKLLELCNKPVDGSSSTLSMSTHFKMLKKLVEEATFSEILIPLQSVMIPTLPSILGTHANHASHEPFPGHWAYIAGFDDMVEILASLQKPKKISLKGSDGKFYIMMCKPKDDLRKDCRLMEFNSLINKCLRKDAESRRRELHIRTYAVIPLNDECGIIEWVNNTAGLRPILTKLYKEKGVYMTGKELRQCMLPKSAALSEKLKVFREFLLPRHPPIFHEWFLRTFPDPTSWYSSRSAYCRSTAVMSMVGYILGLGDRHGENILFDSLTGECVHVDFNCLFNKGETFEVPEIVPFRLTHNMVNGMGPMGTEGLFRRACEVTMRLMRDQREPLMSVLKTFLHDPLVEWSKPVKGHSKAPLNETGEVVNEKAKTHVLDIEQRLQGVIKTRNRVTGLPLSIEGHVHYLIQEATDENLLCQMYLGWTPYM

IC50 (HT-29 [4]): 439 nM | Cmax [13]: 3400 ng/mL | AUC(0-inf) [14]: 3150 ng·h/mL | inhibition [17]: Active
Compound: C[C@@H]1COCCN1c1nc(-c2cccc3[nH]ccc23)nc2ccc(-c3ccnn3C)cc12
viability at 1 µM (HT-29 [1]): 80.9% | Activity (HT-29 [2]): 7.45% | Activity (OVCAR-3): Dde | Activity (LoVo [3]): Dde | Activity (NCI-H23): Dde | Activity (HepG2): Dde | Activity (LoVo [5]): 17.38% | Activity (LoVo [6]): 28.91% | Activity (LoVo [7]): 20.93% | Activity (HT-29 [8]): 1.65% | Activity (HT-29 [9]): 1.92% | viability at 3 µM (HT-29 [10]): 93.1% | viability at 0.3 µM (HT-29 [11]): 79% | Activity (HT-29 [12]): 9.85% | Activity [15]: Non-Toxic | Activity [16]: Non-Toxic
